Test results as given in US9604975B2, “Indolyl-pyridone derivatives having checkpoint kinase 1 inhibitory activity” (Vernalis (R&D) Ltd., priority 2009, dated 2017).

Molecular target: T1, CHK1 (Homo sapiens, UniProt O14757)
T1 construct: His; purchased Invitrogen
T1 sequence (O14757 1-476): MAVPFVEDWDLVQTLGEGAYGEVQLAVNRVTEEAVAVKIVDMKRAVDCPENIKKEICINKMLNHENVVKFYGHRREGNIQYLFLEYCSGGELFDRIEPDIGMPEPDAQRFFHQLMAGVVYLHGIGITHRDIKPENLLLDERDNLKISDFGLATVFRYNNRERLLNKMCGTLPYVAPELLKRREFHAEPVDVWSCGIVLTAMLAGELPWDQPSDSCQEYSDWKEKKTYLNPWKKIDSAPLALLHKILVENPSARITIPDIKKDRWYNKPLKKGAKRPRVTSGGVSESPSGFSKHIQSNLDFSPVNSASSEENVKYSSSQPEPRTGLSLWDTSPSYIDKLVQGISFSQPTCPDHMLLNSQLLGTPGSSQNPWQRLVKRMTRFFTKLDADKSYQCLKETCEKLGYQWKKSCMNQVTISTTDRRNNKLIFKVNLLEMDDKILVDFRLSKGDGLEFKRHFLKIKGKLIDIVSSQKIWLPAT
Assay: CHK1 Enzyme Assay (phosphorylation of Chktide peptide, 33P-ATP filter assay)
Type: biochemical
Details: 12.5 nM His-CHK1, 0.01 mM ATP, 40 minutes at 30° C.; read-out: CHK1 Enzyme Activity (IC50 range)
Description: Assays for the CHK1 kinase activity were carried out by monitoring the phosphorylation of a synthetic peptide Chktide with the amino acid sequence, […]. The assay mixture containing the inhibitor and CHK1 enzyme was mixed together in a microtiter plate in a final volume of 50 μl and incubated for 40 minutes at 30° C.
The assay mixture contained 0.01 mM unlabeled ATP, 0.5 μCi ^33P-γ-ATP, 14.8 μM Chktide, 0.1 mg/mL BSA, 50 mM Hepes-NaOH pH 7.5 and 12.5 nM His-CHK1 (Invitrogen) enzyme. The reaction was stopped by adding 50 μL of 50 mM phosphoric acid. 90 μL of the mixture was transferred to a pre-wetted 96-well multi-screen MAPHNOB filtration plate (Millipore) and filtered on a vacuum manifold. The filter plate was washed with 3 successive additions of 200 μl 50 mM phosphoric acid and then with 100 μL methanol. The filtration plate was dried for 10 min at 65° C., scintillant added and phosphorylated peptide quantified in a scintillation counter (Trilux, PerkinElmer).

| Structure (SMILES) | IC50 [nM] |
| --- | --- |
| Cc1ccccc1Cn1cc(NC(=O)c2c[nH]c(=O)c(-c3cc4ccccc4[nH]3)c2)cn1 [Example 3, 5-(1H-Indol-2-yl)-6-oxo-1,6-dihydro-pyridine-3-carboxylic acid [1-(2-methyl-benzyl)-1H-pyrazol-4-yl]-amide] | 500 to 1500 |
| Cc1cccc(Cn2cc(NC(=O)c3c[nH]c(=O)c(-c4cc5ccccc5[nH]4)c3)cn2)c1 [Example 4, 5-(1H-Indol-2-yl)-6-oxo-1,6-dihydro-pyridine-3-carboxylic acid[1-(3-methyl-benzyl)-1H-pyrazol-4-yl]-amide] | < 100 |
| Cc1ccc(Cn2cc(NC(=O)c3c[nH]c(=O)c(-c4cc5ccccc5[nH]4)c3)cn2)cc1 [Example 5, 5-(1H-Indol-2-yl)-6-oxo-1,6-dihydro-pyridine-3-carboxylic acid[1-(4-methyl-benzyl)-1H-pyrazol-4-yl]-amide] | 100 to 500 |
| O=C(Nc1cnn(Cc2ccc(F)cc2)c1)c1c[nH]c(=O)c(-c2cc3ccccc3[nH]2)c1 [Example 10, 5-(1H-Indol-2-yl)-6-oxo-1,6-dihydro-pyridine-3-carboxylic acid [1-(4-fluoro-benzyl)-1H-pyrazol-4-yl]-amide] | < 100 |
| O=C(Nc1cnn(Cc2ccc(F)c(F)c2)c1)c1c[nH]c(=O)c(-c2cc3ccccc3[nH]2)c1 [Example 11, 5-(1H-Indol-2-yl)-6-oxo-1,6-dihydro-pyridine-3-carboxylic acid [1-(3,4-difluoro-benzyl)-1H-pyrazol-4-yl]-amide] | < 100 |
| O=C(Nc1cnn(Cc2ccc(Cl)cc2)c1)c1c[nH]c(=O)c(-c2cc3ccccc3[nH]2)c1 [Example 12, 5-(1H-Indol-2-yl)-6-oxo-1,6-dihydro-pyridine-3-carboxylic acid [1-(4-chloro-benzyl)-1H-pyrazol-4-yl]-amide] | 100 to 500 |
| O=C(Nc1cnn(Cc2cc(F)cc(F)c2)c1)c1c[nH]c(=O)c(-c2cc3ccccc3[nH]2)c1 [Example 13, 5-(1H-Indol-2-yl)-6-oxo-1,6-dihydro-pyridine-3-carboxylic acid [1-(3,5-difluoro-benzyl)-1H-pyrazol-4-yl]-amide] | < 100 |
| CN1CCN(C(=O)c2ccc3[nH]c(-c4cc(C(=O)Nc5cnn(Cc6ccccc6)c5)c[nH]c4=O)cc3c2)CC1 [Example 15, 5-[5-(4-Methyl-piperazine-1-carbonyl)-1H-indol-2-yl]-6-oxo-1,6-dihydro-pyridine-3-carboxylic acid (1-benzyl-1H-pyrazol-4-yl)-amide] | < 100 |
| O=C(Nc1cnn(Cc2ccccc2)c1)c1c[nH]c(=O)c(-c2cc3cc(CN4CCNCC4)ccc3[nH]2)c1 [Example 16, 6-oxo-5-(5-piperazin-1-ylmethyl-1H-indol-2-yl)-1,6-dihydro-pyridine-3-carboxylic acid (1-benzyl-1H-pyrazol-4-yl)-amide] | < 100 |
| Cc1[nH]c(=O)c(-c2cc3ccccc3[nH]2)cc1C(=O)Nc1cnn(Cc2ccccc2)c1 [Example 17, 5-(1H-Indol-2-yl)-2-methyl-6-oxo-1,6-dihydro-pyridine-3-carboxylic acid (1-benzyl-1H-pyrazol-4-yl)-amide] | 500 to 1500 |
| Cc1[nH]c(=O)c(-c2cc3ccccc3[nH]2)cc1C(=O)Nc1cnn(Cc2cccc(F)c2)c1 [Example 18, 5-(1H-Indol-2-yl)-2-methyl-6-oxo-1,6-dihydro-pyridine-3-carboxylic acid [1-(3-fluoro-benzyl)-1H-pyrazol-4-yl]-amide] | 500 to 1500 |
| Cc1[nH]c(=O)c(-c2cc3ccccc3[nH]2)cc1C(=O)Nc1cnn(Cc2ccc(F)c(F)c2)c1 [Example 19, 5-(1H-Indol-2-yl)-2-methyl-6-oxo-1,6-dihydro-pyridine-3-carboxylic acid [1-(3,4-difluoro-benzyl)-1H-pyrazol-4-yl]-amide] | 100 to 500 |
| O=C(Nc1c[nH]c(=O)c(-c2cc3ccccc3[nH]2)c1)c1cnn(Cc2ccc(F)c(F)c2)c1 [Example 24, 1-(3,4-Difluoro-benzyl)-1H-pyrazole-4-carboxylic acid [5-(1H-indol-2-yl)-6-oxo-1,6-dihydro-pyridin-3-yl]-amide] | < 100 |

Now from value to compound:

| IC50 [nM] | Structure (SMILES) |
| --- | --- |
| < 100 | O=C(Nc1cnn(Cc2ccccc2)c1)c1c[nH]c(=O)c(-c2cc3ccccc3[nH]2)c1 [Example 1, 5-(1H-Indol-2-yl)-6-oxo-1,6-dihydro-pyridine-3-carboxylic acid (1-benzyl-1H-pyrazol-4-yl)-amide] |
| 100 to 500 | COc1ccc(Cn2cc(NC(=O)c3c[nH]c(=O)c(-c4cc5ccccc5[nH]4)c3)cn2)cc1 [Example 2, 5-(1H-Indol-2-yl)-6-oxo-1,6-dihydro-pyridine-3-carboxylic acid [1-(4-methoxy-benzyl)-1H-pyrazol-4-yl]-amide] |
| 100 to 500 | N#Cc1cccc(Cn2cc(NC(=O)c3c[nH]c(=O)c(-c4cc5ccccc5[nH]4)c3)cn2)c1 [Example 6, 5-(1H-Indol-2-yl)-6-oxo-1,6-dihydro-pyridine-3-carboxylic acid [1-(3-cyano-benzyl)-1H-pyrazol-4-yl]-amide] |
| 500 to 1500 | N#Cc1ccc(Cn2cc(NC(=O)c3c[nH]c(=O)c(-c4cc5ccccc5[nH]4)c3)cn2)cc1 [Example 7, 5-(1H-Indol-2-yl)-6-oxo-1,6-dihydro-pyridine-3-carboxylic acid [1-(4-cyano-benzyl)-1H-pyrazol-4-yl]-amide] |
| 100 to 500 | O=C(Nc1cnn(Cc2ccccc2F)c1)c1c[nH]c(=O)c(-c2cc3ccccc3[nH]2)c1 [Example 8, 5-(1H-Indol-2-yl)-6-oxo-1,6-dihydro-pyridine-3-carboxylic acid [1-(2-fluoro-benzyl)-1H-pyrazol-4-yl]-amide] |
| < 100 | O=C(Nc1cnn(Cc2cccc(F)c2)c1)c1c[nH]c(=O)c(-c2cc3ccccc3[nH]2)c1 [Example 9, 5-(1H-Indol-2-yl)-6-oxo-1,6-dihydro-pyridine-3-carboxylic acid [1-(3-fluoro-benzyl)-1H-pyrazol-4-yl]-amide] |
| 100 to 500 | Cc1ccc(Cn2cc(NC(=O)c3c[nH]c(=O)c(-c4cc5ccccc5[nH]4)c3)cn2)cc1F [Example 14, 5-(1H-Indol-2-yl)-6-oxo-1,6-dihydro-pyridine-3-carboxylic acid [1-(3-fluoro-4-methyl-benzyl)-1H-pyrazol-4-yl]-amide] |
| < 100 | O=C(Nc1c[nH]c(=O)c(-c2cc3ccccc3[nH]2)c1)c1cnn(Cc2ccc(F)cc2)c1 [Example 21, 1-(4-Fluoro-benzyl)-1H-pyrazole-4-carboxylic acid [5-(1H-indol-2-yl)-6-oxo-1,6-dihydro-pyridin-3-yl]-amide] |
| < 100 | O=C(Nc1c[nH]c(=O)c(-c2cc3ccccc3[nH]2)c1)c1cnn(Cc2cccc(F)c2)c1 [Example 22, 1-(3-Fluoro-benzyl)-1H-pyrazole-4-carboxylic acid [5-(1H-indol-2-yl)-6-oxo-1,6-dihydro-pyridin-3-yl]-amide] |
| < 100 | O=C(Nc1c[nH]c(=O)c(-c2cc3ccccc3[nH]2)c1)c1cnn(Cc2cccc(C(F)(F)F)c2)c1 [Example 23, 1-(3-Trifluoromethyl-benzyl)-1H-pyrazole-4-carboxylic acid [5-(1H-indol-2-yl)-6-oxo-1,6-dihydro-pyridin-3-yl]-amide] |
| 100 to 500 | O=C(Nc1c[nH]c(=O)c(-c2cc3ccccc3[nH]2)c1)c1cnn(Cc2ccc(C(F)(F)F)cc2)c1 [Example 25, 1-(4-Trifluoromethyl-benzyl)-1H-pyrazole-4-carboxylic acid [5-(1H-indol-2-yl)-6-oxo-1,6-dihydro-pyridin-3-yl]-amide] |
